Source: US20060115492A1, “Pharmaceutical composition and health food comprising extract of Phellinus sp. PL3 or phellinsin a isolated from the same as an effective component for prevention and treatment of cardiovascular disease” (Korea Research Institute of Bioscience and Biotechnology, priority 2004, published 2006)

Legend:
[1] = DPPH radical scavenging; type: biochemical; settings: for IC50: after 35 min, read-out: IC50 (DPPH free radical scavenging); for Radical scavenging activity (%): 100 μM solutions in methanol
Experimental: Phellinsin A and 1-diphenyl-2-picryl hydrazyl (DPPH) were dissolved in methanol to be adjusted to 100 μM of concentration, respectively. Then, 1 mL of phellinsin A solution was mixed with 2 mL of DPPH solution and stirred well. […]

[2] = tested on: LDL; test: Anti-oxidation to LDL by TBARS method (Cu2+-mediated LDL oxidation); type: biochemical, human; settings: read-out: IC50 (anti-oxidant activity to LDL)
Experimental: The Phellinus sp. PL3 extract and the phellinsin A isolated from the same prepared as described in Examples were examined for their anti-oxidant activity to LDL as follows.
In the present invention, dialdehydes as an oxidative product of unsaturated fatty acids was measured by performing TBARS (thiobarbituric acid-reactive substances) method to investigate the anti-oxidant activities of Phellinus sp. PL3 extract and the phellinsin A isolated from Phellinus sp PL3.
300 mL of human plasma was centrifuged at 100,000×g for 24 hours with an ultracentrifuge to remove a very low density lipoprotein (VLDL)/chylomicron layer floated on the supernatant. The remaining solution was adjusted to 1.063 g/mL of gravity and centrifuged at 100,000×g for 24 hours to separate again 25 mL (1.5-2.5 mg protein/mL) of LDL floated on the supernatant. […]
Then, 10 μL of 0.25 mM CuSO4 was added to the resulting solution, reacted at 37° C. for 4 hours and added with 1 mL of 20% trichloroacetic acid (TCA) solution to stop the reaction. […] The resulting solution was centrifuged at 3,000 rpm for 5 min to separate supernatant and measured the absorbance at 540 nm with a UV-visible spectrophotometer. Finally, the amount of malondialdehyde (MDA) generated by the coloring reaction was determined.
In the experiment using Phellinus sp. […] PL3, the amount of malondialdehyde was quantified by using this standard curve.

[3] = tested on: LDL; test: Anti-oxidant activity by monitoring conjugated dienes continuously (LDL oxidation, absorbance at 234 nm); type: biochemical, human; settings: control lag time 44 min
Experimental: 240 μL of LDL (120 μg/mL of protein concentration) separated in Experimental Example 1 was mixed with 2,510 μL of 10 mM phosphate buffer solution and added with 10 μL of phellinsin A solution prepared in 2 kinds of concentration (2 μM and 5 μM), respectively. At this moment, the phellinsin A was utilized after dissolved in DMSO and for a negative control, only solvent was added. For a positive control, probucol was added before use.
Then, 240 μL of 0.125 mM CuSO4 was added to the resulting solution, reacted at 37° C. for 4 hours and coincidently, measured by monitoring the absorbance at 234 nm with a UV-visible spectrophotometer at 10 min intervals.

[4] = tested on: ICR mice; test: Acute toxicity test of oral administration in mice; type: in vivo; settings: oral 100, 500 and 1,000 mg/kg once, ICR mice, 7 days
Experimental: (§1) In order to investigate the acute toxicity of Phellinus sp. PL3 extract or phellinsin A isolated from the same according to the present invention, the experimental procedure is performed as follows.
(§2) 4-week old specific pathogens free (SPF) ICR mice were adopted in 12 of female and 12 of male mice (3 male and female mice/dose group, respectively) and raised in a breeding room under 12 L/12 D of light kept at temperature of 22±3° C. humidity of 55±10%. The experimental mice were adapted for a week before use. Animal fodder (purchased from Cheil Feed Co. Ltd., for mice and rat uses) and water were provided after sterilized and fed freely.
(§3) The Phellinus sp. PL3 extract and phellinsin A isolated from the same prepared in Examples were made to 50 mg/mL of concentration by using 0.55% Tween 80 solvent and orally administered in 0.04 mL (100 mg/kg), 0.2 mL (500 mg/kg) and 0.4 mL (1,000 mg/kg) per 20 g of body weight. […]
(§4) In addition, the experimental mice were killed, anatomized and examined on inner organs with the naked eyes in 7 days of administration. In a day interval from the 1st day, the body weights were measured to examine whether the Phellinus sp. […]

[5] = Acute toxicity test of oral administration in mice; type: in vivo; settings: both sexes, ICR, mouse, in vivo, po
Experimental: as §1, §2, §3, §4

[6] = molecular target: T1, chitin synthase 2 of Saccharomyces cerevisiae (Saccharomyces cerevisiae, UniProt P14180); settings: J. Antibiotics, 2000, 9: 903-911; cited from earlier work
T1 sequence (P14180 1-963): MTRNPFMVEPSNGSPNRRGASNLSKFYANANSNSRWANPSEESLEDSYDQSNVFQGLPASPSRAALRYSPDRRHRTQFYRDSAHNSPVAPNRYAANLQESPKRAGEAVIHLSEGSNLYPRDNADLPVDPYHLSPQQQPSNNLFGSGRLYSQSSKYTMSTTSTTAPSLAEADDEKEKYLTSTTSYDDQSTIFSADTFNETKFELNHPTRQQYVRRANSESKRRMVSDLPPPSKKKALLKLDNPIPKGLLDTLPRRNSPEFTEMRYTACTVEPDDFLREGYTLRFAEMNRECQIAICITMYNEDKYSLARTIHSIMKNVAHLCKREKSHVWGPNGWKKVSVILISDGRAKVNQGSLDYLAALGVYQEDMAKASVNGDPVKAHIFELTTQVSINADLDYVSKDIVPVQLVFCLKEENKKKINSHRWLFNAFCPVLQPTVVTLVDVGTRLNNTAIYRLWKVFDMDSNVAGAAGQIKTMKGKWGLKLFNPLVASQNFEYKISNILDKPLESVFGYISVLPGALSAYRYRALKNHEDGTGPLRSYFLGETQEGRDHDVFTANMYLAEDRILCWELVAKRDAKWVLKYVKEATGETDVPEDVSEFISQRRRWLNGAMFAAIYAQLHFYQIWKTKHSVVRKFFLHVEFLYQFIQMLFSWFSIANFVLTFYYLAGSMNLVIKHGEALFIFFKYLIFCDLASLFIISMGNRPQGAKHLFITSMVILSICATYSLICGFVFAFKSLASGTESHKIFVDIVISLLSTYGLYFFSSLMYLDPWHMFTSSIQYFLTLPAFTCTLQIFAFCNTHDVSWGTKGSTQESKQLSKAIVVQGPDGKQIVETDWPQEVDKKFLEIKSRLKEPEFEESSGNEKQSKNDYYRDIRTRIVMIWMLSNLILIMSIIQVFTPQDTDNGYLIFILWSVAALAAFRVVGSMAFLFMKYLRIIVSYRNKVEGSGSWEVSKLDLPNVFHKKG

[7] = tested on: macrophage-mediated LDL oxidation (THP-1 cells); test: Macrophage-mediated LDL oxidation (THP-1 cells, TBARS); type: cell-based; settings: for MDA nmol/mg LDL protein: LDL + cell + Cu2+, control 210.6 ± 10.7
Experimental: Then, the resulting cells were cultivated for 3 days and activated by using macrophages sufficiently.
Phellinsin A was dissolved in DMSO and diluted in various concentrations before used in the experiment. In order to catalyze the macrophage-mediated LDL oxidation, 2μL of 0.5 mM CuSO4 was added to the phellinsin A solution. Incubation was then carried out for 24 hours at 37° C. under a humidified atmosphere containing 5% CO2.

| Compound | IC50 [1] [µM] | IC50 [2] [µM] | lag time (conjugated dienes) ([3]; 2 μM) [min] | lag time (conjugated dienes) ([3]; 5 μM, monitored up to 240 min) [min] | Radical scavenging activity (%) ([1]; 5 min) | Radical scavenging activity (%) ([1]; 10 min) | Radical scavenging activity (%) ([1]; 30 min) | toxicity (clinical symptoms, deaths, body weight, blood tests, autopsy) [4] | LD50 at 7 days [5] [mg/kg] | inhibition of chitin synthase 2 [6] | MDA nmol/mg LDL protein ([7]; 1 μM) [nmol/mg LDL protein] | MDA nmol/mg LDL protein ([7]; 2 μM) [nmol/mg LDL protein] | MDA nmol/mg LDL protein ([7]; 5 μM) [nmol/mg LDL protein] | MDA nmol/mg LDL protein ([7]; 10 μM) [nmol/mg LDL protein] | anti-oxidant activity relative to probucol on macrophage-mediated LDL oxidation ([7]; 2-10 μM, times stronger than probucol) |
| --- | --- | --- | --- | --- | --- | --- | --- | --- | --- | --- | --- | --- | --- | --- | --- |
| Cc1c(C)c2c(c(C)c1O)CCC(C)(C(=O)O)O2 (stereo not shown) [trolox, reference compound] | 18.6 |  |  |  |  |  |  |  |  |  |  |  |  |  |  |
| O=C1OC(c2ccc(O)c(O)c2)C(C(=O)O)/C1=C\c1ccc(O)c(O)c1 (stereo not shown) [Phellinsin A, phellinsin A] | 1.7 | 5.3 | 192 | > 240 | 55 | 87 | 92 | no toxicity | ≥ 1000 | highly inhibit | 167.7 ± 6.2 | 94.2 ± 4.7 | 55.9 ± 2.8 | 39.4 ± 0.9 | 2-3.7 times |
| CC(C)(Sc1cc(C(C)(C)C)c(O)c(C(C)(C)C)c1)Sc1cc(C(C)(C)C)c(O)c(C(C)(C)C)c1 [Probucol, probucol, reference compound] |  |  | 63 | 70 |  |  |  |  |  |  | 209.7 ± 1.7 | 199.1 ± 10.7 | 157.4 ± 2.4 | 145.5 ± 3.9 |  |
